Reference: patent publication US10774385B2, “Method of determining risk of 5-fluorouracil toxicity” (Oxford University Innovation Limited, priority 2014, dated 2020)

Assays:
[1] = cited from earlier work
[2] = QUASAR2 trial: FU-related adverse events of capecitabine +/- bevacizumab graded by NCI CTCAE v3.0; format: in vivo, human
Description: The QUASAR2 study (http://www.octo-oxford.org.uk/alltrials/infollowup/q2.html; http://www.controlled-trials.com/ISRCTN45133151/) is a phase III randomised controlled trial of adjuvant capecitabine (Xeloda) (1250 mg/m2 twice daily d1-14 every 3 weeks, total of 8 cycles) +/−bevacizumab (7.5 mg/kg every three weeks) following resection of stage II/III CRC. Patients were entered into the study between July 2005 and December 2011 at 123 UK and 81 non-UK sites. Of 1119 patients with blood collected as of July 2010, 1046 were selected for study based on availability of clinical data and informed consent.
Adverse events were graded following each treatment cycle using the NCI Common Toxicity Criteria for Adverse Events (CTCAE) version 3.0. Common FU-related toxicities—diarrhea, nausea and vomiting, mucositis/stomatitis, neutropaenia, thrombocytopaenia, and HFS—were analysed individually and also in combination as “global” toxicity. Adverse events were categorised as low (CTCAE grade 0/1/2) and high (CTCAE grade 3/4/5 at any treatment cycle). Hypertension and proteinuria were clearly related to bevacizumab (˜10-fold higher incidence) and were not included in the analysis.
The QUASAR2 study was used as described in Example 1(a)(i). Of 1,119 patients with blood collected as of July 2010, 1,046 were selected for genetic study based on completeness of clinical data and informed consent.
Toxicity phenotype data were collected as part of QUASAR2 according the NCI Common Toxicity Criteria for Adverse Events (CTCAE) version 3.0. Maximum toxicity (0-4) at any treatment cycle was derived for each of the following individual FU-related toxicities: diarrhea, nausea and vomiting, mucositis/stomatitis, neutropaenia, thrombocytopaenia and HFS. A global measure of toxicity was derived, defined as the maximum individual toxicity score measured for each patient. Global and individual toxicities were analysed using two approaches: (i) a binary classification into low toxicity (grade 0-2) versus high (dose-limiting) toxicity (grade 3-4); and (ii) a quantitative measure of toxicity. In the latter, if <100 patients experienced a particular grade of toxicity, these patients were combined into a single bin with an adjacent grade. Specifically, grades 01v2v34 for global, diarrhea and HFS and 0v1234 for the other, rarer toxicity phenotypes were analysed.

[3] = Spanish Capecitabine Pharmacogenetic (SCP) Study: diarrhea and HFS by CTCAE v3.0; format: in vivo, human; details: capecitabine monotherapy
Description: Two additional data sets were used for validation of toxicity associations. The Spanish Capecitabine Pharmacogenetic (SCP) Study consisted of 233 colorectal and breast cancer patients prospectively recruited through several oncology units in Spain and treated with one of two capecitabine monotherapy regimens (standard: 1250 mg/m^2 twice daily d1-14 every 3 weeks; continuous: 800 mg/m^2 orally every 12 hours daily). HFS and diarrhea data Table 4 were collected according to CTCAEv3.0.

[4] = human, in vivo, 8 cycles of 3 weeks
[5] = patients selected for high and low toxicity

O=c1[nH]cc(F)c(=O)[nH]1 [FU, 5-fluorouracil]
Patients suffering substantial toxicities (Grade 3 or above, CTCAE v3.0) ([1]; FU chemotherapy, background statement): 10-30% | Mortality (Grade 5, CTCAE v3.0) associated with FU use ([1]; overall, literature): 0.5-1.0%

CCCCCOC(=O)Nc1nc(=O)n(C2OC(C)C(O)C2O)cc1F (stereo not drawn) [capecitabine, pentyl [1-(3,4-dihydroxy-5-methyltetrahydrofuran-2-yl)-5-fluoro-2-oxo-1H-pyrimidin-4-yl]carbamate]
Toxicity-induced deaths in QUASAR2 ([2]; QUASAR2, patients with grade 4 myelotoxicity): two | Patients, Global adverse event, CTCAE grade 0 [2, 4]: 75 | Patients, Global adverse event, CTCAE grade 1 [2, 4]: 241 | Patients, Global adverse event, CTCAE grade 2 [2, 4]: 375 | Patients, Global adverse event, CTCAE grade 3 [2, 4]: 334 | Patients, Neutropaenia, CTCAE grade 0 [2, 4]: 921 | Patients, Neutropaenia, CTCAE grade 1 [2, 4]: 71 | Patients, Neutropaenia, CTCAE grade 2 [2, 4]: 28 | Patients, Neutropaenia, CTCAE grade 3 [2, 4]: 17 | Patients, Thrombocytopaenia, CTCAE grade 0 [2, 4]: 961 | Patients, Thrombocytopaenia, CTCAE grade 1 [2, 4]: 67 | Patients, Thrombocytopaenia, CTCAE grade 2 [2, 4]: 9 | Patients, Thrombocytopaenia, CTCAE grade 3 [2, 4]: 0 | Patients, Thrombocytopaenia, CTCAE grade 4 [2, 4]: 4 | Patients, Vomiting, CTCAE grade 3 [2, 4]: 12 | Patients, Vomiting, CTCAE grade 4 [2, 4]: 3 | Patients, Diarrhoea, CTCAE grade 0 ([2]; human, in vivo, 24 weeks): 370 | Patients, Diarrhoea, CTCAE grade 1 ([2]; human, in vivo, 24 weeks): 388 | Patients, Diarrhoea, CTCAE grade 2 ([2]; human, in vivo, 24 weeks): 175 | Patients, Diarrhoea, CTCAE grade 3 ([2]; human, in vivo, 24 weeks): 99 | Patients, Diarrhoea, CTCAE grade 4 ([2]; human, in vivo, 24 weeks): 10 | Patients, Global adverse event, CTCAE grade 4 ([2]; human, in vivo, 24 weeks): 19 | Patients, Handfoot, CTCAE grade 0 ([2]; human, in vivo, 24 weeks): 176 | Patients, Handfoot, CTCAE grade 1 ([2]; human, in vivo, 24 weeks): 287 | Patients, Handfoot, CTCAE grade 2 ([2]; human, in vivo, 24 weeks): 331 | Patients, Handfoot, CTCAE grade 3 ([2]; human, in vivo, 24 weeks): 246 | Patients, Handfoot, CTCAE grade 4 ([2]; human, in vivo, 24 weeks): 1 | Patients, Mucositis, CTCAE grade 0 ([2]; human, in vivo, 24 weeks): 734 | Patients, Mucositis, CTCAE grade 1 ([2]; human, in vivo, 24 weeks): 248 | Patients, Mucositis, CTCAE grade 2 ([2]; human, in vivo, 24 weeks): 49 | Patients, Mucositis, CTCAE grade 3 ([2]; human, in vivo, 24 weeks): 11 | Patients, Mucositis, CTCAE grade 4 ([2]; human, in vivo, 24 weeks): 0 | Patients, Stomatitis, CTCAE grade 0 ([2]; human, in vivo, 24 weeks): 718 | Patients, Stomatitis, CTCAE grade 1 ([2]; human, in vivo, 24 weeks): 244 | Patients, Stomatitis, CTCAE grade 2 ([2]; human, in vivo, 24 weeks): 67 | Patients, Stomatitis, CTCAE grade 3 ([2]; human, in vivo, 24 weeks): 11 | Patients, Stomatitis, CTCAE grade 4 ([2]; human, in vivo, 24 weeks): 1 | Patients, Vomiting, CTCAE grade 0 ([2]; human, in vivo, 24 weeks): 817 | Patients, Vomiting, CTCAE grade 1 ([2]; human, in vivo, 24 weeks): 134 | Patients, Vomiting, CTCAE grade 2 ([2]; human, in vivo, 24 weeks): 74 | Patients, Diarrhoea, highest CTCAE grade reported during treatment: 0 ([3]; 233 colorectal and breast cancer patients, selected for high and low toxicity): 143 | Patients, Diarrhoea, highest CTCAE grade reported during treatment: 1 [3, 5]: 23 | Patients, Diarrhoea, highest CTCAE grade reported during treatment: 2 [3, 5]: 17 | Patients, Diarrhoea, highest CTCAE grade reported during treatment: 3 [3, 5]: 32 | Patients, Diarrhoea, highest CTCAE grade reported during treatment: 4 [3, 5]: 4 | Patients, Handfoot, highest CTCAE grade reported during treatment: 0 [3, 5]: 85 | Patients, Handfoot, highest CTCAE grade reported during treatment: 1 [3, 5]: 28 | Patients, Handfoot, highest CTCAE grade reported during treatment: 2 [3, 5]: 30 | Patients, Handfoot, highest CTCAE grade reported during treatment: 3 [3, 5]: 86 | Patients, Handfoot, highest CTCAE grade reported during treatment: 4 [3, 5]: 2 | Share of capecitabine patients suffering dose-limiting levels of drug-induced adverse events ([1]; background statement): approximately one third | Mortality from rapid-onset toxicity relative to infusional and bolus 5-FU regimens (0.5% to 2%) ([1]; capecitabine schedules, literature): about half that number
